According to ChEMBL document CHEMBL4024707, “Using gene expression database to uncover biology functions of 1,4-disubstituted 1,2,3-triazole analogues synthesized via a copper (I)-catalyzed reaction” (Eur J Med Chem, 2017):

What was measured:
[1] = tested on: Hep 3B2; experiment: Cell cycle arrest in human Hep3B cells assessed as accumulation at G0/G1 phase at 10 uM after 24 hrs by propidium iodide staining based flow cytometry (reference value: 36.3 to 39.0%); assay type: functional
[2] = tested on: Hep 3B2; experiment: Cell cycle arrest in human Hep3B cells assessed as accumulation at G2/M phase at 5 uM after 72 hrs by propidium iodide staining based flow cytometry (reference value: 28.7 to 32.3%); assay type: functional
[3] = tested on: Hep 3B2; experiment: Cell cycle arrest in human Hep3B cells assessed as accumulation at S phase at 10 uM after 48 hrs by propidium iodide staining based flow cytometry (reference value: 20.8 to 24%); assay type: functional
[4] = tested on: Hep 3B2; experiment: Cell cycle arrest in human Hep3B cells assessed as accumulation at S phase at 20 uM after 72 hrs by propidium iodide staining based flow cytometry (reference value: 16.4 to 21.1%); assay type: functional
[5] = tested on: Hep 3B2; experiment: Induction of autophagy in human Hep3B cells at 10 uM after 24 hrs by acridine orange staining based flow cytometry (reference value: 1.1 to 1.3%); assay type: functional
[6] = tested on: Hep 3B2; experiment: Cell cycle arrest in human Hep3B cells assessed as accumulation at sub-G1 phase at 5 uM after 24 hrs by propidium iodide staining based flow cytometry (reference value: 1.9 to 3.6%); assay type: functional
[7] = tested on: Hep 3B2; experiment: Cell cycle arrest in human Hep3B cells assessed as accumulation at sub-G1 phase at 2.5 uM after 24 hrs by propidium iodide staining based flow cytometry (reference value: 1.9 to 3.6%); assay type: functional
[8] = tested on: Hep 3B2; experiment: Cell cycle arrest in human Hep3B cells assessed as accumulation at sub-G1 phase at 10 uM after 72 hrs by propidium iodide staining based flow cytometry (reference value: 0.6 to 3.3%); assay type: functional
[9] = tested on: Hep 3B2; experiment: Cell cycle arrest in human Hep3B cells assessed as accumulation at S phase at 10 uM after 72 hrs by propidium iodide staining based flow cytometry (reference value: 16.4 to 21.1%); assay type: functional
[10] = tested on: Hep 3B2; experiment: Induction of autophagy in human Hep3B cells at 2.5 to 20 uM by acridine orange staining based flow cytometry; assay type: functional, cell-based; settings: TDE = time-dependent effect
[11] = tested on: Hep 3B2; experiment: Cell cycle arrest in human Hep3B cells assessed as accumulation at sub-G1 phase at 5 uM after 72 hrs by propidium iodide staining based flow cytometry (reference value: 0.6 to 3.3%); assay type: functional
[12] = tested on: Hep 3B2; experiment: Induction of autophagy in human Hep3B cells at 2.5 uM after 48 hrs by acridine orange staining based flow cytometry (reference value: 0.9 to 3%); assay type: functional
[13] = tested on: Hep 3B2; experiment: Cell cycle arrest in human Hep3B cells assessed as accumulation at G0/G1 phase at 20 uM after 72 hrs by propidium iodide staining based flow cytometry (reference value: 41.6 to 46.2%); assay type: functional
[14] = tested on: Hep 3B2; experiment: Cell cycle arrest in human Hep3B cells assessed as accumulation at S phase at 2.5 uM after 24 hrs by propidium iodide staining based flow cytometry (reference value: 22.6 to 27.1%); assay type: functional
[15] = tested on: Hep 3B2; experiment: Cytotoxicity against human Hep3B cells after 48 hrs by MTT assay; assay type: functional, cell-based
[16] = tested on: Hep 3B2; experiment: Cell cycle arrest in human Hep3B cells assessed as accumulation at sub-G1 phase at 10 uM after 24 hrs by propidium iodide staining based flow cytometry (reference value: 1.9 to 3.6%); assay type: functional
[17] = tested on: Hep 3B2; experiment: Induction of autophagy in human Hep3B cells at 5 uM after 24 hrs by acridine orange staining based flow cytometry (reference value: 1.1 to 1.3%); assay type: functional
[18] = tested on: Hep 3B2; experiment: Induction of autophagy in human Hep3B cells at 5 uM after 72 hrs by acridine orange staining based flow cytometry (reference value: 1.1 to 4%); assay type: functional
[19] = tested on: Hep 3B2; experiment: Induction of autophagy in human Hep3B cells at 2.5 uM after 72 hrs by acridine orange staining based flow cytometry (reference value: 1.1 to 4%); assay type: functional
[20] = tested on: Hep 3B2; experiment: Cell cycle arrest in human Hep3B cells assessed as accumulation at G0/G1 phase at 20 uM after 48 hrs by propidium iodide staining based flow cytometry (reference value: 39.7 to 40.4%); assay type: functional
[21] = tested on: Hep 3B2; experiment: Cell cycle arrest in human Hep3B cells assessed as accumulation at sub-G1 phase at 10 uM after 48 hrs by propidium iodide staining based flow cytometry (reference value: 1.5 to 6.5%); assay type: functional
[22] = tested on: Hep 3B2; experiment: Cell cycle arrest in human Hep3B cells assessed as accumulation at sub-G1 phase at 2.5 uM after 72 hrs by propidium iodide staining based flow cytometry (reference value: 0.6 to 3.3 %); assay type: functional
[23] = tested on: Hep 3B2; experiment: Cell cycle arrest in human Hep3B cells assessed as accumulation at S phase at 2.5 uM after 72 hrs by propidium iodide staining based flow cytometry (reference value: 16.4 to 21.1%); assay type: functional
[24] = tested on: Hep 3B2; experiment: Cell cycle arrest in human Hep3B cells assessed as accumulation at sub-G1 phase at 2.5 uM after 48 hrs by propidium iodide staining based flow cytometry (reference value: 1.5 to 6.5%); assay type: functional
[25] = Growth inhibition of HUVEC at 12.5 uM after 24 hrs by MTT assay relative to control; assay type: cell-based; settings: human, HUVEC cells; read-out: GI
[26] = tested on: Hep 3B2; experiment: Cell cycle arrest in human Hep3B cells assessed as accumulation at G2/M phase at 20 uM after 72 hrs by propidium iodide staining based flow cytometry (reference value: 28.7 to 32.3%); assay type: functional
[27] = tested on: Hep 3B2; experiment: Induction of autophagy in human Hep3B cells at 2.5 uM after 24 hrs by acridine orange staining based flow cytometry (reference value: 1.1 to 1.3%); assay type: functional
[28] = tested on: Hep 3B2; experiment: Induction of autophagy in human Hep3B cells at 20 uM after 72 hrs by acridine orange staining based flow cytometry (reference value: 1.1 to 4%); assay type: functional
[29] = tested on: Hep 3B2; experiment: Cell cycle arrest in human Hep3B cells assessed as accumulation at sub-G1 phase at 20 uM after 72 hrs by propidium iodide staining based flow cytometry (reference value: 0.6 to 3.3%); assay type: functional
[30] = tested on: Hep 3B2; experiment: Cell cycle arrest in human Hep3B cells assessed as accumulation at sub-G1 phase at 5 uM after 48 hrs by propidium iodide staining based flow cytometry (reference value: 1.5 to 6.5%); assay type: functional
[31] = tested on: Hep 3B2; experiment: Cell cycle arrest in human Hep3B cells assessed as accumulation at G2/M phase at 10 uM after 72 hrs by propidium iodide staining based flow cytometry (reference value: 28.7 to 32.3%); assay type: functional
[32] = tested on: Hep 3B2; experiment: Cell cycle arrest in human Hep3B cells assessed as accumulation at sub-G1 phase after 24 to 72 hrs by propidium iodide staining based flow cytometry; assay type: functional
[33] = tested on: Hep 3B2; experiment: Induction of autophagy in human Hep3B cells at 5 uM after 48 hrs by acridine orange staining based flow cytometry (reference value: 0.9 to 3%); assay type: functional
[34] = tested on: Hep 3B2; experiment: Cell cycle arrest in human Hep3B cells assessed as accumulation at sub-G1 phase at 20 uM after 48 hrs by propidium iodide staining based flow cytometry (reference value: 1.5 to 6.5%); assay type: functional
[35] = tested on: Hep 3B2; experiment: Induction of autophagy in human Hep3B cells at 10 uM after 72 hrs by acridine orange staining based flow cytometry (reference value: 1.1 to 4%); assay type: functional
[36] = tested on: Hep 3B2; experiment: Cell cycle arrest in human Hep3B cells assessed as accumulation at sub-G1 phase at 20 uM after 24 hrs by propidium iodide staining based flow cytometry (reference value: 1.9 to 3.6%); assay type: functional

Row | Compound | Activity [1] [%] | Activity [5] [%] | Activity [6] [%] | Activity [7] [%] | Activity [8] [%] | Activity [10] | Activity [11] [%] | Activity [12] [%] | Activity [16] [%] | Activity [17] [%] | Activity [18] [%] | Activity [19] [%] | Activity [21] | Activity [22] [%] | Activity [24] [%] | Activity [27] [%] | Activity [28] [%] | Activity [29] [%] | Activity [30] [%] | Activity [33] [%] | further results
1 | CNC(=O)c1cc(Oc2ccc(NC(=O)Nc3ccc(Cl)c(C(F)(F)F)c3)cc2)ccn1 [SORAFENIB] | 53.6 | 3.2 | 7.3 | 5.2 | 13.7 | Tde | 7.2 | 1.3 | 6.9 | 2.4 | 6.1 | 2.3 | 11.8% | 5.3 | 4 | 2 | 84.9 | 65 | 5 | 1.5 | Activity [2]: 31.3%; Activity [3]: 8.8%; Activity [4]: 6.2%; Activity [9]: 7.9%; Activity [13]: 13.6%; Activity [14]: 21.9%; IC50 [15]: 11.2 µM; Activity [20]: 27.8%; Activity [23]: 15%; inhibition at 24 h, 12.5 µM [25]: 37.4%; Activity [26]: 15.2%; Activity [31]: 22.7%; Activity [32]: Dose-dependent effect
2 | O=C1COc2ccccc2N1Cc1cn(CCC2OCCO2)nn1 |  | 2.4 | 12.4 | 6.2 | 54 | Tde | 18 | 1.9 | 22.4 | 1.6 | 12.8 | 1.9 | 37.4 - 41.4% | 7.9 | 6.5 | 1.3 | 57 | 65.7 | 14.2 | 5.1 | Activity [34]: 57.2%; IC50 [15]: 16.8 µM; Activity [35]: 49.4%; inhibition at 24 h, 12.5 µM [25]: 15.2%; Activity [36]: 34.1%; Activity [32]: Dose-dependent effect
3 | COc1ccc(CNC(=O)Nc2ncc([N+](=O)[O-])s2)cc1 | 34.3 | 5.9 | 4.2 | 3.1 | 1.3 | Tde | 2.4 | 8.1 | 5 | 5.3 | 10.9 | 6.4 | 3.3% | 1.6 | 3.4 | 4.7 | 15.5 | 2.1 | 5 | 6.3 | Activity [2]: 33.9%; Activity [3]: 23.2%; Activity [4]: 19.5%; Activity [9]: 21.5%; Activity [13]: 43.6%; Activity [34]: 3.6%; Activity [14]: 25.7%; Activity [20]: 37.8%; Activity [35]: 13.2%; Activity [23]: 21.1%; Activity [26]: 34.9%; Activity [31]: 34.1%; Activity [36]: 4.7%
